Measured values from patent US7833967B2, “Synthetic antimicrobial polypeptides” (priority 2003, dated 2010).

Test system: E. coli TOP10
Experiment: Suicide expression system (SES) growth inhibition
Assay type: cell-based
Conditions: Table 1; 0.1% inducer (arabinose), pBAD/gIIIA in E. coli TOP10, Bioscreen C 37° C., end point OD450 vs control vector

Row | Substance | Growth inhibition (%)
1 | 1 (RRRPPRFPPRFPPRFPPRFPPRFPPRF; Synthetic antimicrobial peptide) [compound 1] | 48%
2 | 2 (RRRPRFPPRFPPRFPPRFPPRFPPRFP; Synthetic antimicrobial peptide) [compound 2] | 45%
3 | 3 (RRRRFPPRFPPRFPPRFPPRFPPRFPP; Synthetic antimicrobial peptide) [compound 3] | 43%
4 | 4 (RRRFPPRFPPRFPPRFPPRFPPRFPPR; Synthetic antimicrobial peptide) [compound 4] | 46%
5 | 5 (RRRPRPFPRPFPRPFPRPFPRPFPRPF; Synthetic antimicrobial peptide) [compound 5] | 57%
6 | 6 (RRRRPFPRPFPRPFPRPFPRPFPRPFP; Synthetic antimicrobial peptide) [compound 6] | 57%
7 | 7 (RRRPFPRPFPRPFPRPFPRPFPRPFPR; Synthetic antimicrobial peptide) [compound 7] | 39%
8 | 8 (RRRFPRPFPRPFPRPFPRPFPRPFPRP; Synthetic antimicrobial peptide) [compound 8] | 38%
9 | 9 (RRRPPFRPPFRPPFRPPFRPPFRPPFR; Synthetic antimicrobial peptide) [compound 9] | 67%
10 | 10 (RRRPFRPPFRPPFRPPFRPPFRPPFRP; Synthetic antimicrobial peptide) [compound 10] | 78%
11 | 11 (RRRFRPPFRPPFRPPFRPPFRPPFRPP; Synthetic antimicrobial peptide) [compound 11] | 73%
12 | 12 (RRRRPPFRPPFRPPFRPPFRPPFRPPF; Synthetic antimicrobial peptide) [compound 12] | 76%

Same assay, conditions: Table 2; variants of SEQ ID NO:1, re-tested in the Bioscreen C

Row | Substance | Growth inhibition (%)
13 | 13 (RRRPPRFPPRFPPRFPPRFPPRFPPRF; Synthetic antimicrobial peptide) [compound 13] | 51%
14 | 14 (RRRPPRFPPRIPPRFPPRLPPRIPPRL; Synthetic antimicrobial peptide) [compound 14] | 90%
15 | 15 (RRRPPRFPPRIPPRLPPRVPPRVPPRL; Synthetic antimicrobial peptide) [compound 15] | 57%
16 | 16 (RRRPPRIPPRFPPRVPPRFPPRVPPRV; Synthetic antimicrobial peptide) [compound 16] | 98%
17 | 17 (RRRPPRIPPRLPPRIPPRFPPRFPPRL; Synthetic antimicrobial peptide) [compound 17] | 95%
18 | 18 (RRRPPRLPPRFPPRFPPRIPPRFPPRI; Synthetic antimicrobial peptide) [compound 18] | 99%
19 | 19 (RRRPPRLPPRFPPRFPPRIPPRFPPRI; Synthetic antimicrobial peptide) [compound 19] | 78%
20 | 20 (RRRPPRLPPRFPPRFPPRVPPRFPPRV; Synthetic antimicrobial peptide) [compound 20] | 86%
21 | 21 (RRRPPRLPPRFPPRFPPRVPPRFPPRV; Synthetic antimicrobial peptide) [compound 21] | 86%
22 | 22 (RRRPPRLPPRFPPRFPPRVPPRLPPRF; Synthetic antimicrobial peptide) [compound 22] | 81%
23 | 23 (RRRPPRLPPRFPPRFPPRVPPRVPPRF; Synthetic antimicrobial peptide) [compound 23] | 82%
24 | 24 (RRRPPRLPPRFPPRFPPRVPPRVPPRF; Synthetic antimicrobial peptide) [compound 24] | 90%
25 | 25 (RRRPPRLPPRFPPRFPPRVPPRVPPRI; Synthetic antimicrobial peptide) [compound 25] | 81%
26 | 26 (RRRPPRVPPRFPPRVPPRFPPRVPLRL; Synthetic antimicrobial peptide) [compound 26] | 86%
27 | 27 (RRRPPRLPPRLPPRLPPRVPPRVPLVSNCSRTKTHLRRGSE; Synthetic antimicrobial peptide) [compound 27] | 90%

Same assay, conditions: Table 3; variants of SEQ ID NO:5, re-tested in the Bioscreen C

Row | Substance | Growth inhibition (%)
28 | 28 (RRRPRPFPRPFPRPFPRPFPRPFPRPF; Synthetic antimicrobial peptide) [compound 28] | 57%
29 | 29 (RRRPRLPRPFPRPVPRPLPRPVPRPI; Synthetic antimicrobial peptide) [compound 29] | 63%
30 | 30 (RRRPRPFPPPFPRPIPRPFPRPFPRPL; Synthetic antimicrobial peptide) [compound 30] | 61%
31 | 31 (RRRPRPFPRPFPHPFPRPFPRPIPRPI; Synthetic antimicrobial peptide) [compound 31] | 73%
32 | 32 (RRRPRPFPRPFPHPIPRPLPRPFPRPI; Synthetic antimicrobial peptide) [compound 32] | 77%
33 | 33 (RRRPRPFPRPFPRPFPRPFPRPFPRPF; Synthetic antimicrobial peptide) [compound 33] | 79%
34 | 34 (RRRPRPFPRPFPRPFPRPFPRPFPRPL; Synthetic antimicrobial peptide) [compound 34] | 74%
35 | 35 (RRRPRPFPRPFPRPFPRPFPRPIPRPF; Synthetic antimicrobial peptide) [compound 35] | 78%
36 | 36 (RRRPRPFPRPFPRPFPRPFPRPIPRPI; Synthetic antimicrobial peptide) [compound 36] | 77%
37 | 37 (RRRPRPFPRPFPRPFPRPIPRPFPRPV; Synthetic antimicrobial peptide) [compound 37] | 68%
38 | 38 (RRRPRPFPRPFPRPFPRPIPRPVPRPI; Synthetic antimicrobial peptide) [compound 38] | 64%
39 | 39 (RRRPRPFPRPFPRPFPRPLPRPFPRPF; Synthetic antimicrobial peptide) [compound 39] | 56%
40 | 40 (RRRPRPFPRPFPRPFPRPVPRPLPRPI; Synthetic antimicrobial peptide) [compound 40] | 69%
41 | 41 (RRRPRPFPRPFPRPFPRPVPRPLPRPV; Synthetic antimicrobial peptide) [compound 41] | 71%
42 | 42 (RRRPRPFPRPFPRPIPRPFPRPLPRPI; Synthetic antimicrobial peptide) [compound 42] | 66%
43 | 43 (RRRPRPFPRPFPRPIPRPFPRPVPRPV; Synthetic antimicrobial peptide) [compound 43] | 68%
44 | 44 (RRRPRPFPRPFPRPLPRPFPRPVPRPF; Synthetic antimicrobial peptide) [compound 44] | 95%
45 | 45 (RRRPRPFPRPFPRPLPRPIPRPFPRPV; Synthetic antimicrobial peptide) [compound 45] | 69%

Row | Substance | Growth inhibition (%)
46 | 46 (RRRPRPFPRPFPRPVPRPFPRPFPRPI; Synthetic antimicrobial peptide) [compound 46] | 84%
47 | 47 (RRRPRPFPRPFPRPVPRPIPRPFPRPF; Synthetic antimicrobial peptide) [compound 47] | 92%
48 | 48 (RRRPRPFPRPFPRPVPRPVPRPVPRPF; Synthetic antimicrobial peptide) [compound 48] | 59%
49 | 49 (RRRPRPFPRPLPRPVPRPFPRPVPRPL; Synthetic antimicrobial peptide) [compound 49] | 51%
50 | 50 (RRRPRPFPRPLPRPVPRPFPRPVPRPV; Synthetic antimicrobial peptide) [compound 50] | 69%
51 | 51 (RRRPRPFPRPVPRPFPRPFPRPFPRPF; Synthetic antimicrobial peptide) [compound 51] | 77%
52 | 52 (RRRPRPFPRPVPRPIPRPFPRPVPRPF; Synthetic antimicrobial peptide) [compound 52] | 53%
53 | 53 (RRRPRPFPRPVPRPIPRPFPRPVPRPV; Synthetic antimicrobial peptide) [compound 53] | 62%
54 | 54 (RRRPRPFPRPVPRPVPRPFPRPIPRPL; Synthetic antimicrobial peptide) [compound 54] | 65%
55 | 55 (RRRPRPFPRPVPRPVPRPFPRPLPRPI; Synthetic antimicrobial peptide) [compound 55] | 63%
56 | 56 (RRRPRPIPRPFPRPFPRPFPRPFPRPI; Synthetic antimicrobial peptide) [compound 56] | 51%
57 | 57 (RRRPRPIPRPFPRPIPRPIPRPFPRPF; Synthetic antimicrobial peptide) [compound 57] | 73%
58 | 58 (RRRPRPIPRPFPRPIPRPVPRPFPRPF; Synthetic antimicrobial peptide) [compound 58] | 77%
59 | 59 (RRRPRPIPRPFPRPIPRPVPRPFPRPF; Synthetic antimicrobial peptide) [compound 59] | 75%
60 | 60 (RRRPRPIPRPFPRPVPRPVPRPFPRPF; Synthetic antimicrobial peptide) [compound 60] | 70%
61 | 61 (RRRPRPVPRPFPRPVPRPLPRPFPRPF; Synthetic antimicrobial peptide) [compound 61] | 97%
62 | 62 (RRRPRPIPRPIPRPFPRPFPRPFHAQSNCSRTKTHLRRGSE; Synthetic antimicrobial peptide) [compound 62] | 77%
63 | 63 (RRRPRPFPRPFPRPVPRPFPRPFPRQSNCSRTKTHLRRGSE; Synthetic antimicrobial peptide) [compound 63] | 80%

Same assay, conditions: Table 4; variants of SEQ ID NO:10, re-tested in the Bioscreen C

Row | Substance | Growth inhibition (%)
64 | 64 (RRRPFRPPFRPPFRPPFRPPFRPPFRP; Synthetic antimicrobial peptide) [compound 64] | 82%
65 | 65 (RRRPLRPPLRPPVRPPVRPPFRPPFRP; Synthetic antimicrobial peptide) [compound 65] | 89%
